{"source": "ChEMBL document CHEMBL5678818", "about": "“Discovery of potent SOS1 inhibitors that block RAS activation via disruption of the RAS-SOS1 interaction” (Proc Natl Acad Sci U S A, 2019)", "key": {"[1]": {"target": "T1, Calcium/calmodulin-dependent protein kinase type IV (Homo sapiens) (UniProt Q16566)", "T1 sequence (whole entry)": "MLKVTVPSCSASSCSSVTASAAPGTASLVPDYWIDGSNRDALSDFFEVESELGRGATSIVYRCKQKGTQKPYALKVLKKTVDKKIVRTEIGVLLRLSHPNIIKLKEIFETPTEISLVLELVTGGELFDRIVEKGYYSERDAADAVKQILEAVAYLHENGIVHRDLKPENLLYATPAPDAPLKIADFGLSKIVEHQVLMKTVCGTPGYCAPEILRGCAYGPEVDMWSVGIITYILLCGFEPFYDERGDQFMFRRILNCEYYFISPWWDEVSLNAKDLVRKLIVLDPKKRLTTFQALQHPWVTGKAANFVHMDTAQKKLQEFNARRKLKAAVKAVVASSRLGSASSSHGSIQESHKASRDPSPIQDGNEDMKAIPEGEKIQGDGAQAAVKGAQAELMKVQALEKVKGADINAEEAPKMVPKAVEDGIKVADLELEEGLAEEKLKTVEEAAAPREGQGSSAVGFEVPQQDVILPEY", "assay": "Inhibition of CAMK4 (unknown origin) assessed as residual activity at 100 nM by KINOMEscan analysis relative to control"}, "[2]": {"tested_on": "Receptor-type tyrosine-protein kinase FLT3 (Homo sapiens), P36888 [K663Q]", "assay": "Inhibition of FLT3 K663Q mutant (unknown origin) assessed as residual activity at 100 nM by KINOMEscan analysis relative to control"}, "[3]": {"target": "T2, Mitogen-activated protein kinase kinase kinase kinase 3 (Homo sapiens) (UniProt Q8IVH8)", "T2 sequence (whole entry)": "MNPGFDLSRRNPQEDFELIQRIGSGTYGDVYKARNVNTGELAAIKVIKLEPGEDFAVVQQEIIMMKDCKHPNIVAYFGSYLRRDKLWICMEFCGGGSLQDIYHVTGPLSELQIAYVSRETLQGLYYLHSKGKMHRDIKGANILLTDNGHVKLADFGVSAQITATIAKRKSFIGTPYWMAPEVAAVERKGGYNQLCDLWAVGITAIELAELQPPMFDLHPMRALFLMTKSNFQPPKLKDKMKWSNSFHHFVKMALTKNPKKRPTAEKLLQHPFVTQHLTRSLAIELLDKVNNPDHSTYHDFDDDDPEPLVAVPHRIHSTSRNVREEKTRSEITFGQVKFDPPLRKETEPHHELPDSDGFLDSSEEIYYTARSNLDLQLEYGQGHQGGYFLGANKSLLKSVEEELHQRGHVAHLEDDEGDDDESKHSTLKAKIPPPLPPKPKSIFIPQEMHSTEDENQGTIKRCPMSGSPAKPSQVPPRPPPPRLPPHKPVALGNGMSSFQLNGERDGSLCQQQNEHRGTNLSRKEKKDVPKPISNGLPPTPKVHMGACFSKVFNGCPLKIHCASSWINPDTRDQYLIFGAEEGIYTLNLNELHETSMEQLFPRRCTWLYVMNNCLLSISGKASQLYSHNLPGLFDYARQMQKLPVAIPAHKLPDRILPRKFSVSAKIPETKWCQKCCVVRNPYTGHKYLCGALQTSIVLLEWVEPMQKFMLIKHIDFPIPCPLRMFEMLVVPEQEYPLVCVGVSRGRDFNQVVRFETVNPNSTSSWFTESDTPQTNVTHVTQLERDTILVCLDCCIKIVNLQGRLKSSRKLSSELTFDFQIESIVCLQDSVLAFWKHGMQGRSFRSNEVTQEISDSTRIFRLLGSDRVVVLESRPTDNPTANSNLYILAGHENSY", "assay": "Inhibition of MAP4K3 (unknown origin) assessed as residual activity at 100 nM by KINOMEscan analysis relative to control"}, "[4]": {"target": "Serine/threonine-protein kinase Nek7 (Homo sapiens) (UniProt Q8TDX7)", "sequence (Q8TDX7 whole entry, looked up)": "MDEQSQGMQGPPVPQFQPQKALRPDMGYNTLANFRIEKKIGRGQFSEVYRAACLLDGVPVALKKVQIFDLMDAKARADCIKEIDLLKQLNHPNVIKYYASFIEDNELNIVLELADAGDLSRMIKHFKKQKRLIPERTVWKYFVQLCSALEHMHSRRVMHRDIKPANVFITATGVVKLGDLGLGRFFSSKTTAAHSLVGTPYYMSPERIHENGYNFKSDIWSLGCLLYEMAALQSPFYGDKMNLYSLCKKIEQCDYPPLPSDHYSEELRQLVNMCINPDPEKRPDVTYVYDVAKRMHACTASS", "assay": "Inhibition of NEK7 (unknown origin) assessed as residual activity at 100 nM by KINOMEscan analysis relative to control"}, "[5]": {"target": "Rho-associated protein kinase 2 (Homo sapiens) (UniProt O75116)", "sequence (O75116 whole entry, looked up)": "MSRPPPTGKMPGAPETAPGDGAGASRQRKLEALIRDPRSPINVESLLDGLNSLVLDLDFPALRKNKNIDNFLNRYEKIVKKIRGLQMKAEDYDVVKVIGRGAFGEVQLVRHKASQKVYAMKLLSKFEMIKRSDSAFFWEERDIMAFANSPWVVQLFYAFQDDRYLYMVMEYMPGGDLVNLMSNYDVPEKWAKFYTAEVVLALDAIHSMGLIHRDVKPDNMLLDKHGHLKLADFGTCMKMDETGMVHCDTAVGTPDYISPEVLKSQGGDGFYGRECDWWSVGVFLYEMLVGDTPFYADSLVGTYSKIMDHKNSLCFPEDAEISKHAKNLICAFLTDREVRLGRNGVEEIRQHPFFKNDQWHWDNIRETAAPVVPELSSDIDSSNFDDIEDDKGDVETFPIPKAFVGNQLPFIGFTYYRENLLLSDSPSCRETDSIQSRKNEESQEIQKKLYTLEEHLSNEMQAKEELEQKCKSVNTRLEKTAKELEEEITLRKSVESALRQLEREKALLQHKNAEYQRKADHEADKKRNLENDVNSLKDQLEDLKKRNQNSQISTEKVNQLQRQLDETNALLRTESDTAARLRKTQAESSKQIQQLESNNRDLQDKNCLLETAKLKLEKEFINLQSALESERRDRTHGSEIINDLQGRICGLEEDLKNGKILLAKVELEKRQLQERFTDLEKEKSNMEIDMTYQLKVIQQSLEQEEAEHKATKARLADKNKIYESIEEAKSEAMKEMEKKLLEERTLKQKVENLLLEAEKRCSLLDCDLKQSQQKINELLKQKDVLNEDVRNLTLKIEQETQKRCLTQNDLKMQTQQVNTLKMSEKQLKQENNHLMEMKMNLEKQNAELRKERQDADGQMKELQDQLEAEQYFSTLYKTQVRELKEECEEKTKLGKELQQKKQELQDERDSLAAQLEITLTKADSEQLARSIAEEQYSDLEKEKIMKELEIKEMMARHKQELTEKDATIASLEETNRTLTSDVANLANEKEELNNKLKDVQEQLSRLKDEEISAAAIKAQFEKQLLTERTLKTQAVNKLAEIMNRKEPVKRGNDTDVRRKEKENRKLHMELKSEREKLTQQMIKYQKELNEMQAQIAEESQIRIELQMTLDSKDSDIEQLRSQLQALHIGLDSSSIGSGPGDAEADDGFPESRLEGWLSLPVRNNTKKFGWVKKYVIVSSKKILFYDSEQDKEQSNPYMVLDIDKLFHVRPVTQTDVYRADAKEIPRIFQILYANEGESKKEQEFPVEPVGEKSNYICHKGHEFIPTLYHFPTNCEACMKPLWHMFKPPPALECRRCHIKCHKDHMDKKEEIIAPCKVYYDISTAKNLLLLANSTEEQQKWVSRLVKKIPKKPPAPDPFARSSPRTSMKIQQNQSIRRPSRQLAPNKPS", "assay": "Inhibition of ROCK2 (unknown origin) assessed as residual activity at 100 nM by KINOMEscan analysis relative to control"}, "[6]": {"target": "T3, Serine/threonine-protein kinase TAO3 (Homo sapiens) (UniProt Q9H2K8)", "T3 sequence (whole entry)": "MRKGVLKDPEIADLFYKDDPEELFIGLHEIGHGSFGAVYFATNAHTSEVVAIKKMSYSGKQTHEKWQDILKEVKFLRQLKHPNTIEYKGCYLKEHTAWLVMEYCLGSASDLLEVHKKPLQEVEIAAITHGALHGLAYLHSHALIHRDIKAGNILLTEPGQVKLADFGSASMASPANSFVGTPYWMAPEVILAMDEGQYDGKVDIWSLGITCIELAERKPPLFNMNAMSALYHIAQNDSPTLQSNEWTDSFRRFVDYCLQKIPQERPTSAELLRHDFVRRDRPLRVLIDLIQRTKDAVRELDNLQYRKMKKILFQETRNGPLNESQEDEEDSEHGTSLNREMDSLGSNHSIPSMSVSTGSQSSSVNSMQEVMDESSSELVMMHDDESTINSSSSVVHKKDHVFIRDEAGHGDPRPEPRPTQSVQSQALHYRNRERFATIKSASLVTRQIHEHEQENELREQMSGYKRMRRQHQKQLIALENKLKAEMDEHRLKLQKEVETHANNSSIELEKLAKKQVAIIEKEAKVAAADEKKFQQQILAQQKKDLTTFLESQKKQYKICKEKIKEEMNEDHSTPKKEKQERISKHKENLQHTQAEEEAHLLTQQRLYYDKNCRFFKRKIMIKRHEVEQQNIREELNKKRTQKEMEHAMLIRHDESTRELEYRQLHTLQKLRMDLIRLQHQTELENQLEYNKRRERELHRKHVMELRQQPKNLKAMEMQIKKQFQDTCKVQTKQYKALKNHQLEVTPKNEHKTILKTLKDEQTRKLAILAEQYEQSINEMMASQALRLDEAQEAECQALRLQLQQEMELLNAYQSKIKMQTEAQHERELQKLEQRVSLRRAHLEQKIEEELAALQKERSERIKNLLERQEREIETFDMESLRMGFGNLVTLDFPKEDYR", "assay": "Inhibition of TAOK3 (unknown origin) assessed as residual activity at 100 nM by KINOMEscan analysis relative to control"}}, "data": [{"smiles": "COc1cc2ncnc(N[C@H](C)c3cccc4ccccc34)c2cc1OC", "values": [{"measurement": "Activity", "setting": "[1]", "value": 100, "unit": "%"}, {"measurement": "Activity", "setting": "[2]", "value": 90, "unit": "%"}, {"measurement": "Activity", "setting": "[3]", "value": 85, "unit": "%"}, {"measurement": "Activity", "setting": "[4]", "value": 100, "unit": "%"}, {"measurement": "Activity", "setting": "[5]", "value": 87, "unit": "%"}, {"measurement": "Activity", "setting": "[6]", "value": 82, "unit": "%"}]}]}
